Patent publication US4432974A, “Antiinflammatory and/or analgesic 2,3-diaryl-5-silyl thiophenes” (E. I. Du Pont de Nemours and Company, priority 1982, dated 1984)
Where two headings read alike, the source gives them in different places.

Key:
[1] = tested on: phenylquinone-induced writhing in mice; assay: Phenylquinone Writhing Test; assay type: in vivo, female white mice; conditions: Mus musculus, read-out: Phenylquinone Writhing ED50
Protocol: A standard procedure for detecting and comparing the analgesic activity of compounds in this series for which there is a good correlation with human efficacy is the standard phenylquinone writhing test modified from Siegmund, et al., Proc. Soc. Exp. Biol. Med., 95, 729 (1957). A test compound suspended in 1% methylcellulose was given orally to fasted (17-21 hours) female white mice, 5-20 animals per double blind test. Aqueous (0.01% phenyl-p-benzoquinone) phenylquinone, 0.20 ml per mouse, was injected intraperitoneally 6 minutes before observations were begun. […] The effective analgesic dose for 50% of the mice (ED50) was calculated by the moving average method of Thompson, W. R., Bact. Rev., 11, 115-145 (1947); the time of peak activity was determined for many of the compounds. Data for some of the compounds is summarized in Tables II and III together with data for some standard analgetic antiinflammatory drugs.

[2] = tested on: adjuvant-induced arthritis in rats; assay: Established Adjuvant-Induced Arthritis in Rats; assay type: in vivo, Charles River Lewis male rats; conditions: for ED50: 168 h, read-out: Adjuvant Arthritis ED50 % Decrease From Control Paw Volume
[3] = daily oral dose 45 mg/kg, 7 days, rat, footnote 1 p < .001, footnote 2 p < .05 vs control
[4] = Table III, oral daily, 7 days, rat, from dose-response regression lines
[5] = Table III, oral, fasted female white mice

Row | SMILES | ED50 ([1]; po) [mg/kg] | ED50 ([2]; Rattus norvegicus, po) [mg/kg] | further results
1 | CC(=O)Oc1ccccc1C(=O)O [Aspirin, reference compound] | 135 | – | –
2 | COc1ccc(-c2cc([Si](C)(C)C)sc2-c2ccc(OC)cc2)cc1 [Example 1, 2,3-Bis(4-methoxyphenyl)-5-(trimethylsilyl)thiophene] | 0.19 | 8 | –
3 | COc1ccc(-c2cc([SiH](C)C)sc2-c2ccc(OC)cc2)cc1 [Example 2, 2,3-Bis(4-methoxyphenyl)-5-(dimethylsilyl)thiophene] | 2.1 | 14.5 | –
4 | C[Si](C)(C)c1cc(-c2ccc(F)cc2)c(-c2ccc(F)cc2)s1 [Example 3] | 4.5 | – | Adjuvant Arthritis Percent Decrease From Control Paw Volume ([2]; daily oral dose 27 mg/kg, 7 days, rat, p < .001 vs control (Student's t)): 37%
5 | C[Si](C)(C)c1cc(-c2ccccc2)c(-c2ccccc2)s1 [Example 4] | 15 | 45 | –
6 | Cc1ccc(-c2cc([Si](C)(C)C)sc2-c2ccc(C)cc2)cc1 [Example 5] | 135 | – | Adjuvant Arthritis Percent Decrease From Control Paw Volume [2, 3]: 44%
7 | CSc1ccc(-c2sc([Si](C)(C)C)cc2-c2ccc(F)cc2)cc1 [Example 6] | – | – | Adjuvant Arthritis Percent Decrease From Control Paw Volume ([2]; daily oral dose 81 mg/kg, 7 days, rat, p < .001 vs control (Student's t)): 42%
8 | C=C[Si](C)(C)c1cc(-c2ccc(OC)cc2)c(-c2ccc(OC)cc2)s1 [Example 7, 2,3-bis(4-methoxyphenyl)-5-(ethenyldimethylsilyl)thiophene] | 0.23 | 6.8 | –
9 | C=CC[Si](C)(C)c1cc(-c2ccc(OC)cc2)c(-c2ccc(OC)cc2)s1 [Example 8, 2,3-bis(4-methoxyphenyl)-5-[(2-propenyl)dimethylsilyl]thiophene] | 0.76 | 9.4 | –
10 | COc1ccc(-c2cc([Si](C)(C)CCC(F)(F)F)sc2-c2ccc(OC)cc2)cc1 [Example 9] | – | 30 | –
11 | CC[Si](CC)(CC)c1cc(-c2ccc(OC)cc2)c(-c2ccc(OC)cc2)s1 [Example 10] | 5.2 | 25 | –
12 | COc1ccc(-c2cc([Si](C)(C)C(C)(C)C)sc2-c2ccc(OC)cc2)cc1 [Example 11] | > 108 | 40 | –
13 | COc1ccc(-c2cc([Si](C)(C)c3ccccc3)sc2-c2ccc(OC)cc2)cc1 [Example 12] | < 108 | 55 | –
14 | COc1ccc(-c2cc([Si](C)(C)Cc3ccccc3)sc2-c2ccc(OC)cc2)cc1 [Example 13] | – | – | Adjuvant Arthritis Percent Decrease From Control Paw Volume [2, 3]: 24%
15 | COc1ccc(-c2cc([Si](C)(C)OC)sc2-c2ccc(OC)cc2)cc1 [Example 21, 2,3-Bis(4-methoxyphenyl)-5-(methoxydimethylsilyl)thiophene] | 3.8 | 9.8 | –
16 | CC(C)Cc1ccc(C(C)C(=O)O)cc1 (centres unmarked) [Ibuprofen, reference compound] | – | – | ED50 [2, 4]: 100 mg/kg; ED50 [1, 5]: 10 mg/kg
17 | COc1ccc2c(c1)c(CC(=O)O)c(C)n2C(=O)c1ccc(Cl)cc1 [Indomethacin, reference compound] | 0.35 | 0.3 | –
18 | CCCCC1C(=O)N(c2ccccc2)N(c2ccccc2)C1=O [Phenylbutazone, reference compound] | – | – | ED50 [2, 4]: 10 mg/kg; ED50 [1, 5]: 80 mg/kg
